# Columns and labels:
# [1] = system: OHS osteosarcoma xenografts; experiment: Tissue distribution of 223Ra in Caelyx liposomes, nude mice with OHS osteosarcoma xenografts (Example 2); assay type: in vivo
# Procedure: 10 nude mice were prepared with OHS osteosarcoma xenografts. Each mouse was trated subcutaneously with one dose of 375 kBq/kg of 223Ra encapsulated in Caelyx lipsomes as prepared in Example 1.
# After 1 hour, one day and four days, three, three and four animals were sacrificed respectively and the tissue distribution of radioactive material was measured.
# The distribution of radionuclide was also compared with a control in which the radium was administered as a salt in a solution of liposomes but not encapsulated thereby.
# [2] = Main biodistribution and blood clearance study with four days pre-treatment; liposomal vs free 223Ra (Example 4); assay type: in vivo, Balb/C mice; conditions: i.v.
# Procedure: In the main study, the mice were divided into four different groups. Each group consisted of 6-7 animals of both sexes. […] One mouse in each of groups two, three and four, were left untreated and were used to measure possible reuptake of the product from faeces or the bedding.
# Blood was withdrawn, the mice were euthanised and the radioactivity measurements were performed in the same manner as in Example 3, 1 hour, 24 hours, 6 days and 14 days post injection for the respective groups of mice.
# To study the difference between liposomally encapsulated and free ^223Ra, a group of mice was injected intravenously with dissolved ^223RaCl.
smiles,measurement,setting,value
"[Cl][223Ra][Cl] [free ^223Ra, ^223RaCl]",clearance from blood,[1],rapid clearance
same,half-life (T1/2) circulating in the blood,[2],less than 1 hours
